Data set [1] has as its system writhing induced by acetic acid. Nature of the data set: Inhibitory actions on the writhing induced by acetic acid in mice. The class given is in vivo, mouse (male ddY strain mice). The conditions noted are these: 50 mg/kg, oral, 30 min before 0.6% acetic acid; writhing counted for 10 min, 5 min after acetic acid; vs control group. How it is done: Inhibitory actions on the writhing induced by acetic acid in mice
Male ddY strain mice weighing 20-24 g were used a group consisting 7-9 animals. Each compound was orally administered to mice. Thirty minutes later, 0.6% acetic acid was abdominally administered at a dose of 0.1 ml/10 g. The number of writhing was counted 5 minutes after the administration of the acetic acid for 10 minutes. The inhibitory percentage were determined by comparing the number of writhing to the control group.
Background: Writhing tests count abdominal constrictions after an irritant is injected.

In data set [2] the test system is carrageenin-induced paw edema. Nature of the data set: Inhibitory actions on carrageenin-induced paw edema. The conditions noted are these: 50 mg/kg, oral, 60 min before 1% λ-carrageenin; 3 hours after induction; vs control group. It counts as in vivo, rat (male rats of Wistar strain). The protocol:
Inhibitory actions on carrageenin-induced paw edema
Using male rats of Wistar strain each weighing approximately 150 g, 0.1 ml of 1% λ-carrageenin was subcutaneously injected into the paw of each rat to induce the reaction. Since then, the volume of paw edema was measured in time course. Each compound of the present invention was orally administered to the rats 60 minutes before the induction of the reaction. As shown in the following Table, the results were expressed in terms of inhibitory percentage in comparison with those in control group at 3 hours after the induction of the reaction.
(The carrageenan paw model is a standard test of acute inflammation.)

Data set [3] concerns gastric mucous. Nature of the data set: Gastric mucous damage test in rats. As to conditions: oral, rats fasted 18 hours. The class given is in vivo, rat (male rats of Wistar strain). The protocol: Gastric mucous damage test in rats
Using male rats of Wistar strain each weighing approximately 160 g, compounds of the present invention were orally administered to the rats previously fasting for 18 hours. Three point five hours later, 1 ml/rat of a 5% Pontamin Sky Blue solution was intravenously injected to the rats. Rats were dissected to remove the stomachs therefrom. A 10 ml of 70% ethanol was injected into the stomachs to fix them, and the stomachs were cut and washed with a 10% hydrogen peroxide/ethanol mixed liquid and then visually observed to fine whether ulcers were formed therein.

Data set [4] is described as follows: Acute toxicity test in mice. The conditions noted are these: in vivo; male mouse, oral, 14 days observation. The text has this:
(§1) Acute toxicity test in rats and mice
(§2) Each group consisting 8 animals such as male Wistar rats weighing about 120 g and male ddY mice weighing about 25 g was used. Compounds of the present invention were orally administered to the animals. General symptoms, changes in body weight and lethality of the test animals had been observed over a period of time for 14 days after the oral administration.

The nature of data set [5]: Acute toxicity test in rats. The conditions noted are these: in vivo; male rat, oral, 14 days observation.
Text: as §1, §2

In general, LD50 refers to the dose expected to kill half of the subjects tested. Lower therefore signals a more toxic substance. Turning to `CC(C)c1ccc(C(=O)c2ncc3n2CCC3C(=O)O)cc1` (stereo not drawn) [Compound of Example 24], in data set [1], the “Inhibition (inhibitory percentage of writhing)” value turned out to be 79.3%. Also, in data set [2], the “Inhibition (inhibitory percentage of paw edema)” value is 51.6%. Further, in data set [3] (100 mg/kg), the Ulcer formation is reported as 0/6. For the same compound, the LD50 at 336 h in data set [4] was greater than 3000 mg/kg; in data set [5], greater than 5000 mg/kg.
For the compound `COc1ccc(C(=O)c2ncc3n2CCC3C(=O)O)cc1` (stereo not drawn) [Compound of Example 15], the “Inhibition (inhibitory percentage of writhing)” value in data set [1] was 86.3%. Also, the “Inhibition (inhibitory percentage of paw edema)” value in data set [2] came to 53.9%. The Ulcer formation in data set [3] (100 mg/kg) is listed as 0/6. For the same compound, the LD50 at 336 h in data set [4] was greater than 3000 mg/kg; in data set [5], greater than 5000 mg/kg.
In the case of `COc1ccc2c(c1)c(CC(=O)O)c(C)n2C(=O)c1ccc(Cl)cc1` [Indomethacine, reference compound], the Ulcer formation in data set [3] (10 mg/kg) was 6/6.
For `O=C(c1ccccc1Cl)c1nc(Br)c2n1CCC2C(=O)O` (stereo not drawn) [Compound of Example 9], in data set [1], the “Inhibition (inhibitory percentage of writhing)” value is 83.3%. Also, the “Inhibition (inhibitory percentage of paw edema)” value in data set [2] came out at 50.1%. Moreover, in data set [3] (100 mg/kg), the Ulcer formation is listed as 0/6. Moreover, the LD50 at 336 h in data set [4] was greater than 3000 mg/kg; in data set [5], greater than 5000 mg/kg.
`CC(=O)Oc1ccccc1C(=O)O` [Aspirin, reference compound]: the Ulcer formation in data set [3] (100 mg/kg) was 6/6.
As for `O=C(c1ccc(Cl)cc1)c1nc(Br)c2n1CCC2C(=O)O` (stereo not drawn) [Compound of Example 16], the “Inhibition (inhibitory percentage of writhing)” value in data set [1] worked out at 84.5%. The “Inhibition (inhibitory percentage of paw edema)” value in data set [2] was 50.7%. Also, the Ulcer formation in data set [3] (100 mg/kg) was 0/6. Further, the figures for the LD50 at 336 h in data set [4] and in data set [5] were greater than 3000 mg/kg and greater than 5000 mg/kg, respectively.
For `O=C(c1ccccc1)c1nc(Br)c2n1CCC2C(=O)O` (stereo not drawn) [Compound of Example 5, 3-benzoyl-1-bromo-6,7-dihydro-5H-pyrrolo[1,2-c]imidazole-7-carboxylic acid], in that order: 87.5%, 48.4%, 0/6, greater than 3000 mg/kg and greater than 5000 mg/kg.

Values taken from US4895956A, “3-aroyl-6,7-dihydro-5H-pyrrolo(1,2-c)imidazole-7-carboxylic acid derivatives” (Hisamitsu Pharmaceutical Co., Ltd., priority 1987, dated 1990).
